{"source": "patent US20050112573A1", "about": "“Method of detecting toxic substance” (priority 2001, published 2005)", "tested_on": "yeast genes (level of expressed mRNA)", "test": "DNA chip analysis of expressed mRNA of yeast genes after 2 h culture with a toxic chemical substance", "assay_type": "cell-based, Saccharomyces cerevisiae S288C", "details": "for The level of expressed mRNA in the presence of chemical substance/ (ratio to absence of chemical substance): stress protein genes, DNA chip", "outline": "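S. cerevisiae S288C in YPD at 25 °C was exposed at log phase for 2 h to a growth-inhibiting, non-lethal concentration of the chemical. Poly(A) mRNA was reverse-transcribed with Cy3- or Cy5-dUTP and hybridized to a whole-genome yeast DNA chip (65 °C, >12 h). Values are fluorescence ratios versus untreated cells.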"}
{"smiles": "CCCCC[C@H](O)CC(=O)CCc1ccc(O)c(OC)c1", "note": "[(13), gingerol]", "values": [{"measurement": "The level of expressed mRNA in the presence of chemical substance/ in its absence, gene YDL078C", "setting": "yeast gene YDL078C, ratio of DNA chip fluorescence intensity to that without chemical substance", "result": 1.0}, {"measurement": "The level of expressed mRNA in the presence of chemical substance/ (in its absence), gene YDL215C", "setting": "yeast gene YDL215C, ratio of DNA chip fluorescence intensity to that without chemical substance", "result": 1.5}, {"measurement": "The level of expressed mRNA in the presence of chemical substance/The level of expressed mRNA in the absence of chemical substance", "setting": "yeast gene YDL238C", "result": 2.0}, {"measurement": "The level of expressed mRNA in the presence of chemical substance/The level of expressed mRNA in the absence of chemical substance", "setting": "yeast gene YDR055W", "result": 3.1}, {"measurement": "The level of expressed mRNA in the presence of chemical substance/ (in its absence), gene YDR073W", "setting": "yeast gene YDR073W, ratio of DNA chip fluorescence intensity to that without chemical substance", "result": 0.6}, {"measurement": "The level of expressed mRNA in the presence of chemical substance/ in its absence, gene YDR079W", "setting": "yeast gene YDR079W, energy system protein genes, 2 h culture with the chemical, ratio to control without chemical", "result": 1.3}, {"measurement": "The level of expressed mRNA in the presence of chemical substance/ (ratio to absence), gene YDR079W", "setting": "yeast gene YDR079W, mitochondria-located protein genes, 2 h culture with chemical", "result": 1.3}, {"measurement": "The level of expressed mRNA in the presence of chemical substance/The level of expressed mRNA in the absence of chemical substance", "setting": "yeast gene YDR084C", "result": 1.0}, {"measurement": "The level of expressed mRNA in the presence of chemical substance/The level of expressed mRNA in the absence of chemical substance", "setting": "yeast gene YDR085C", "result": 1.1}, {"measurement": "The level of expressed mRNA in the presence of chemical substance/The level of expressed mRNA in the absence of chemical substance", "setting": "yeast gene YDR104C", "result": 1.6}, {"measurement": "The level of expressed mRNA in the presence of chemical substance/The level of expressed mRNA in the absence of chemical substance", "setting": "yeast gene YDR115W", "result": 1.1}, {"measurement": "The level of expressed mRNA in the presence of chemical substance/The level of expressed mRNA in the absence of chemical substance", "setting": "yeast gene YDR259C", "result": 2.0}, {"measurement": "The level of expressed mRNA in the presence of chemical substance/ (in its absence), gene YDR297W", "setting": "yeast gene YDR297W, ratio of DNA chip fluorescence intensity to that without chemical substance", "result": 0.8}, {"measurement": "The level of expressed mRNA in the presence of chemical substance/The level of expressed mRNA in the absence of chemical substance", "setting": "yeast gene YDR315C", "result": 1.6}, {"measurement": "The level of expressed mRNA in the presence of chemical substance/The level of expressed mRNA in the absence of chemical substance", "setting": "yeast gene YDR358W", "result": 3.2}, {"measurement": "The level of expressed mRNA in the presence of chemical substance/ (ratio to absence), gene YDR377W", "setting": "yeast gene YDR377W, mitochondria-located protein genes, 2 h culture with chemical", "result": 0.7}, {"measurement": "The level of expressed mRNA in the presence of chemical substance/ (in its absence), gene YDR387C", "setting": "yeast gene YDR387C, ratio of DNA chip fluorescence intensity to that without chemical substance", "result": 1.3}, {"measurement": "The level of expressed mRNA in the presence of chemical substance/The level of expressed mRNA in the absence of chemical substance", "setting": "yeast gene YDR388W", "result": 1.7}, {"measurement": "The level of expressed mRNA in the presence of chemical substance/The level of expressed mRNA in the absence of chemical substance", "setting": "yeast gene YDR432W", "result": 1.4}, {"measurement": "The level of expressed mRNA in the presence of chemical substance/The level of expressed mRNA in the absence of chemical substance", "setting": "yeast gene YDR481C", "result": 1.5}, {"measurement": "The level of expressed mRNA in the presence of chemical substance/The level of expressed mRNA in the absence of chemical substance", "setting": "yeast gene YDR510W", "result": 2.0}, {"measurement": "The level of expressed mRNA in the presence of chemical substance/ (ratio to absence of chemical substance)", "setting": "yeast gene YEL039C", "result": 0.5}, {"measurement": "The level of expressed mRNA in the presence of chemical substance/The level of expressed mRNA in the absence of chemical substance", "setting": "yeast gene YEL042W", "result": 0.4}, {"measurement": "The level of expressed mRNA in the presence of chemical substance/The level of expressed mRNA in the absence of chemical substance", "setting": "yeast gene YEL066W", "result": 1.6}, {"measurement": "The level of expressed mRNA in the presence of chemical substance/ (in its absence), gene YER015W", "setting": "yeast gene YER015W, ratio of DNA chip fluorescence intensity to that without chemical substance", "result": 0.8}, {"measurement": "The level of expressed mRNA in the presence of chemical substance/The level of expressed mRNA in the absence of chemical substance", "setting": "yeast gene YER039C", "result": 2.1}, {"measurement": "The level of expressed mRNA in the presence of chemical substance/ (ratio to absence of chemical substance)", "setting": "yeast gene YER057C", "result": 1.0}, {"measurement": "The level of expressed mRNA in the presence of chemical substance/The level of expressed mRNA in the absence of chemical substance", "setting": "yeast gene YER107C", "result": 0.9}, {"measurement": "The level of expressed mRNA in the presence of chemical substance/The level of expressed mRNA in the absence of chemical substance", "setting": "yeast gene YER130C", "result": 1.6}, {"measurement": "The level of expressed mRNA in the presence of chemical substance/The level of expressed mRNA in the absence of chemical substance", "setting": "yeast gene YFL028C", "result": 1.4}, {"measurement": "The level of expressed mRNA in the presence of chemical substance/The level of expressed mRNA in the absence of chemical substance", "setting": "yeast gene YFL043C", "result": 1.5}, {"measurement": "The level of expressed mRNA in the presence of chemical substance/ (in its absence), gene YGL035C", "setting": "yeast gene YGL035C, ratio of DNA chip fluorescence intensity to that without chemical substance", "result": 1.1}, {"measurement": "The level of expressed mRNA in the presence of chemical substance/ (in its absence), gene YGL115W", "setting": "yeast gene YGL115W, ratio of DNA chip fluorescence intensity to that without chemical substance", "result": 0.7}, {"measurement": "The level of expressed mRNA in the presence of chemical substance/ (ratio to absence of chemical substance)", "setting": "yeast gene YGL115W", "result": 0.7}, {"measurement": "The level of expressed mRNA in the presence of chemical substance/The level of expressed mRNA in the absence of chemical substance", "setting": "yeast gene YGL158W", "result": 1.0}, {"measurement": "The level of expressed mRNA in the presence of chemical substance/ (ratio to absence), gene YGL187C", "setting": "yeast gene YGL187C, mitochondria-located protein genes, 2 h culture with chemical", "result": 0.7}, {"measurement": "The level of expressed mRNA in the presence of chemical substance/ (in its absence), gene YGL205W", "setting": "yeast gene YGL205W, ratio of DNA chip fluorescence intensity to that without chemical substance", "result": 1.0}, {"measurement": "The level of expressed mRNA in the presence of chemical substance/The level of expressed mRNA in the absence of chemical substance", "setting": "yeast gene YGL229C", "result": 1.7}, {"measurement": "The level of expressed mRNA in the presence of chemical substance/ in its absence, gene YGR062C", "setting": "yeast gene YGR062C, energy system protein genes, 2 h culture with the chemical, ratio to control without chemical", "result": 1.5}, {"measurement": "The level of expressed mRNA in the presence of chemical substance/ (ratio to absence), gene YGR062C", "setting": "yeast gene YGR062C, mitochondria-located protein genes, 2 h culture with chemical", "result": 1.5}, {"measurement": "The level of expressed mRNA in the presence of chemical substance/ (in its absence), gene YGR096W", "setting": "yeast gene YGR096W, ratio of DNA chip fluorescence intensity to that without chemical substance", "result": 1.1}, {"measurement": "The level of expressed mRNA in the presence of chemical substance/The level of expressed mRNA in the absence of chemical substance", "setting": "yeast gene YGR136W", "result": 1.7}, {"measurement": "The level of expressed mRNA in the presence of chemical substance/The level of expressed mRNA in the absence of chemical substance", "setting": "yeast gene YGR189C", "result": 1.2}, {"measurement": "The level of expressed mRNA in the presence of chemical substance/The level of expressed mRNA in the absence of chemical substance", "setting": "yeast gene YGR213C", "result": 30.4}, {"measurement": "The level of expressed mRNA in the presence of chemical substance/The level of expressed mRNA in the absence of chemical substance", "setting": "yeast gene YGR257C", "result": 2.0}, {"measurement": "The level of expressed mRNA in the presence of chemical substance/ (in its absence), gene YGR287C", "setting": "yeast gene YGR287C, ratio of DNA chip fluorescence intensity to that without chemical substance", "result": 1.7}, {"measurement": "The level of expressed mRNA in the presence of chemical substance/ (in its absence), gene YGR288W", "setting": "yeast gene YGR288W, ratio of DNA chip fluorescence intensity to that without chemical substance", "result": 1.3}, {"measurement": "The level of expressed mRNA in the presence of chemical substance/ (ratio to absence of chemical substance)", "setting": "yeast gene YHL028W", "result": 2.1}, {"measurement": "The level of expressed mRNA in the presence of chemical substance/ (ratio to absence of chemical substance)", "setting": "yeast gene YHL046C", "result": 1.4}, {"measurement": "The level of expressed mRNA in the presence of chemical substance/The level of expressed mRNA in the absence of chemical substance", "setting": "yeast gene YHR004C", "result": 1.1}, {"measurement": "The level of expressed mRNA in the presence of chemical substance/The level of expressed mRNA in the absence of chemical substance", "setting": "yeast gene YHR071W", "result": 2.3}, {"measurement": "The level of expressed mRNA in the presence of chemical substance/The level of expressed mRNA in the absence of chemical substance", "setting": "yeast gene YHR139C", "result": 7.0}, {"measurement": "The level of expressed mRNA in the presence of chemical substance/The level of expressed mRNA in the absence of chemical substance", "setting": "yeast gene YHR142W", "result": 1.2}, {"measurement": "The level of expressed mRNA in the presence of chemical substance/ (in its absence), gene YHR210C", "setting": "yeast gene YHR210C, ratio of DNA chip fluorescence intensity to that without chemical substance", "result": 0.4}, {"measurement": "The level of expressed mRNA in the presence of chemical substance/ (in its absence), gene YIL006W", "setting": "yeast gene YIL006W, ratio of DNA chip fluorescence intensity to that without chemical substance", "result": 0.8}, {"measurement": "The level of expressed mRNA in the presence of chemical substance/ (ratio to absence of chemical substance)", "setting": "yeast gene YIL011W", "result": 0.5}, {"measurement": "The level of expressed mRNA in the presence of chemical substance/The level of expressed mRNA in the absence of chemical substance", "setting": "yeast gene YIL123W", "result": 0.4}]}
